Measurements as given in US6410219B1 (priority 1994, dated 2002).
Counter-ions that a name gives are not always drawn.

Columns and labels:
R-17 = assay type: cell-based, bacteriophage R17
CA-HIV = assay type: cell-based
red blood cells [1] = test system: red blood cells
R17 [2] = assay type: cell-based, bacteriophage R17
red blood cells [3] = assay: IgG binding to red blood cell surfaces (Example 10); assay type: cell-based; conditions: 10-300 μg/ml
Experimental: Potassium levels on remaining samples were measured and the samples were stored at 4° C. Potassium measurements were repeated daily for one week or until significant differences were observed. Extracellular potassium data appears in Table 15, and FIG. 6. IgG binding in the samples was measured using Baxter Unival Anti-Human Globulin Anti-IgG for Direct Antiglobulin Test and Baxter Coornbs control Cells for Quality Control of Anti-Human Globulin Test (both available from Baxter Healthcare Corporation, Deerfield, Ill.). The results of IgG Binding as measured by FACScan™ (Becton Dickinson, Mountain View, Calif.) appear in Tables 15 and 16: […]

red blood cells [4] = conditions: Swiss Webster, mouse, in vivo
red blood cells [5] = conditions: mouse, in vivo
R17 [6] = assay type: cell-based, bacteriophage R17; remark: listed apart in the source

COc1c2occc2c(CN(C)CO)c2ccc(=O)oc12
Dose for 5 log kill R-17 (R-17): >75 μM | Logs Virus Killed at Fixed Drug Dose, R-17 (R-17): <0.5

4′-[3-(Bis-2-chloroethyl)amino-1-propylaminomethyl]-4,5′,8-trimethylpsoralen
Dose for 5 log kill R-17 (R-17): ≦2 μM | Logs Virus Killed at Fixed Drug Dose, CA-HIV (CA-HIV): 0.4

4′-[4-(Bis-2-chloroethyl)amino-1-butylaminomethyl]-4,5′,8-trimethylpsoralen [Compound S-210]
Logs Virus Killed at Fixed Drug Dose, CA-HIV (CA-HIV): 0.8

5′-[4-(Bis-2chloroethyl)amino-1-butylaminomethyl]-4,4′, 8-trimethylpsoralen
Dose for 5 log kill R-17 (R-17): ≦2 μM | Logs Virus Killed at Fixed Drug Dose, R-17 (R-17): >6 | Logs Virus Killed at Fixed Drug Dose, CA-HIV (CA-HIV): 0.7

O=C(O)CCCc1ccc(N(CCCl)CCCl)cc1 [Chlorambucil, chlorambucil]
potassium leakage of red cells (red blood cells [1]): did not alter | R17 inactivation (R17 [2]): ≤ 0.4 logs | IgG binding of red cells (red blood cells [3]): did not alter

CCN(CCCl)CCCNc1c2ccc(Cl)cc2nc2ccc(OC)cc12 [ICR-170, N-(2-chloroethyl)-N-ethyl-N′-(6-chloro-2-methoxy-9-acridinyl)-1,3-propanediamine dihydrochloride]
LOSS PER DAY (red blood cells [4]): 2.71% | RECOVERY (red blood cells [4]): 86.0 ± 6.6 | % RECOVERY, LOW (red blood cells [5]; Balb/c): 93.1% | % RECOVERY, HIGH (red blood cells [5]): 90.4%

CCN(CC)CCCC(C)Nc1c2ccc(Cl)cc2nc2ccc(OC)cc12 (stereo not shown) [Q, quinicrine]
light-dependent kill of R17 (R17 [6]): no light-dependent kill
